Experimental data from US8852869B2, “Method of determining functional deficiencies in the complement system” (Immunobond ApS, priority 2007, dated 2014).

Test system: alternative complement pathway (AP)
Test: Functional capacity of the alternative pathway on LPS-coated surface
Format: biochemical, human
Settings: 10 mM EDTA present in the dilution buffer; data not shown
Experimental: The protocol for the functional capacity of the AP was similar to the method for the CP assay, with the following modification: Lipopolysaccharide W S. typhimurium (10 ug/ml) (lot. 51974, DICO LABORAORIES, US) was coated in 1M NaCl and used as activating surface for AP activation. The serum samples were diluted in dilution buffer with 4 mM Mg^2+, 10 mM EGTA, and 0.05% Tween-20 and were incubated for 60 min at 37° C. The C3, properdin and C9 deposition was measured by adding 100 μl of mAbs.
The influence of PAS on complement activation via the AP was also analyzed. NHS and C2-deficient serum diluted in dilution buffer containing 4 mM Mg^2+ and 10 mM EGTA was incubated in microtiter-wells (PolySorp), coated with LPS as described above in the presence or absence of PAS and deposition of complement components (C3b/C3bi, properdin and C9) was detected.
Various concentrations of PAS were used in order to determine a dose-response curve for PAS. Experiments were performed as described above only with varying the amount of PAS added to the sample.

**Q.** For `O=C(O)CN(CCN(CC(=O)O)CC(=O)O)CC(=O)O` [EDTA], which “Deposition of C3, properdin and C9 (all three complement components)” value is on record?
**A.** reduced to background levels
